According to patent publication US20190269626A1, “Hair Protection Effect of Vanillyl Alkyl Ether and the Application thereof” (CORUM INC., priority 2018, published 2019):

Tests used:
[1] = test system: LPS-induced inflammatory cytokines (IL-6 and IL-8) in macrophages; test: LPS-induced inflammatory cytokines (IL-6 and IL-8) in macrophages; format: cell-based
From the text: One preferred example of this embodiment is application of VBE on decreasing LPS-induced inflammation (IL-6, and IL-8).

[2] = test system: PMA-induced inflammatory cytokines (IL-6 and IL-8) in HFDPC (human follicle dermal papilla cells); test: PMA-induced inflammatory cytokines (IL-6 and IL-8) in HFDPC; format: cell-based
From the text: Still another example of this embodiment is application of VBE on decreasing PMA-induced inflammation (IL-6 and IL-8). […] Capsaicin, nonivamide, and minoxidil are effectless to PMA-induced IL-6, and IL-8.

ROS generation in HFDPC = test: ROS generation with/without pollutant in HFDPC; format: cell-based, human; conditions: for ROS generation, pollutant-stimulated condition: pollutant-triggered; for ROS generation, basal condition: without pollutant (basal)
From the text: FIG. 4A to FIG. 4B respectively presents with/without pollutant-triggered ROS generation on HFDPC by VBE, and CAP (capsaicin). […] Hair follicle is a mini-organ of the skin which contains dermal papilla cells (DPC) in the bottom site surrounded with matrix cells (keratinocytes) and melanocytes. DPC play an important role to regulate matrix cell proliferation, differentiation and apoptosis during hair cycles, and matrix cells are responsible for forming the major structures of the hair shaft. In the above examples, we established an in vitro model to investigate hair loss mechanism caused by air pollution. Based on our data, SRM1649b (urban dust) PM2.5 is able to activate AhR pathway, enhance ROS generation, up-regulate gene expression of alopecia-related factors (TGF-β2, TNF-α and PTGS2) and stimulate inflammatory cytokines (IL-6, IL-8, and GM-CSF) in human hair follicle dermal papilla cells. […] The mechanism of air pollution induced hair loss is illustrated in FIG. 5.

[3] = test system: hair loss related genes expression (CYP1B1, TGF-β2, and TNF-α) in HFDPC; test: Pollutant-induced hair loss related genes expression in HFDPC; format: cell-based, human
From the text: Still another example of this embodiment is application of VBE on decreasing pollutant-induced hair loss related genes expression (CYP1B1, TGF-β2, and TNF-α) on HFDPC. FIG. 3 presents pollutant-induced hair loss related genes expression (CYP1B1, TGF-β2, and TNF-α) by VBE, and DMF. DMF is 3′,4′-dimethoxyflavone, and is a AhR (aryl hydrocarbon receptor) antagonist. Pollutants usually generate damages though activating the transcription factor AhR.
(§1) FIG. 5 presents how to improve hair loss of human hair follicle dermal papilla cells with VBE according to the above examples. Hair follicle is a mini-organ of the skin which contains dermal papilla cells (DPC) in the bottom site surrounded with matrix cells (keratinocytes) and melanocytes. DPC play an important role to regulate matrix cell proliferation, differentiation and apoptosis during hair cycles, and matrix cells are responsible for forming the major structures of the hair shaft. In the above examples, we established an in vitro model to investigate hair loss mechanism caused by air pollution. Based on our data, SRM1649b (urban dust) PM2.5 is able to activate AhR pathway, enhance ROS generation, up-regulate gene expression of alopecia-related factors (TGF-β2, TNF-α and PTGS2) and stimulate inflammatory cytokines (IL-6, IL-8, and GM-CSF) in human hair follicle dermal papilla cells. […] The mechanism of air pollution induced hair loss is illustrated in FIG. 5.

[4] = test system: AhR pathway in human hair follicle dermal papilla cells; test: Air pollution (SRM1649b urban dust PM2.5) in vitro hair loss model in HFDPC: AhR activity and GM-CSF; format: cell-based
From the text: as §1, with “Hair” for “FIG. 5 presents how to improve hair loss of human hair follicle dermal papilla cells with VBE according to the above examples. Hair”

5-alpha reductase = 5-alpha reductase activity: DHT/Testosterone ratio in NHEK with [14C] testosterone; format: cell-based, human
[5] = test system: anagen hairs and telogen hairs; test: Clinical evaluation of VBE versus placebo, phototrichogram hair growth cycle analysis; format: in vivo, human; conditions: topical once a day for 84 days, half-head versus placebo, subjects with androgenetic alopecia
Method: Another example of this embodiment is clinical evaluation of the effect of VBE versus placebo in the male and female subjects after repeated application of 84 days through. The clinical test is finished by Spincontrol, France. The evaluation was performed using phototrichogram for hair growth cycle analysis. 11 healthy subjects from 25 to 49 years with a chronic hair loss/alopecia of androgenetic origin were selected for this study.

Structure (SMILES): COc1cc(CNC(=O)CCCC/C=C/C(C)C)ccc1O [Capsaicin]
- LPS-induced IL-6 [1]: decreased
- LPS-induced IL-8 [1]: decreased
- PMA-induced IL-6 [2]: no effect
- PMA-induced IL-8 [2]: no effect
- ROS generation, pollutant-stimulated condition (ROS generation in HFDPC): no effect
- ROS generation, basal condition (ROS generation in HFDPC): no effect

Structure (SMILES): COc1ccc(-c2cc(=O)c3ccccc3o2)cc1OC [DMF, 3′,4′-dimethoxyflavone]
- pollutant-induced CYP1B1 gene expression [3]: reducing
- pollutant-induced TGF-β2 gene expression [3]: reducing
- pollutant-induced TNF-α gene expression [3]: reducing

Structure (SMILES): Nc1cc(N2CCCCC2)nc(N)[n+]1[O-] [Minoxidil]
- PMA-induced IL-6 [2]: no effect
- PMA-induced IL-8 [2]: no effect

Structure (SMILES): CCCCCCCCC(=O)NCc1ccc(O)c(OC)c1 [Nonivamide]
- LPS-induced IL-6 [1]: decreased
- LPS-induced IL-8 [1]: decreased
- PMA-induced IL-6 [2]: no effect
- PMA-induced IL-8 [2]: no effect

Structure (SMILES): CCCCOCc1ccc(O)c(OC)c1 [VBE, vanillyl butyl ether]
- LPS-induced IL-6 [1]: decrease
- LPS-induced IL-8 [1]: decrease
- PMA-induced IL-6 [2]: decrease
- PMA-induced IL-8 [2]: decrease
- pollutant-induced CYP1B1 gene expression [3]: reduce
- pollutant-induced TGF-β2 gene expression [3]: reduce
- pollutant-induced TNF-α gene expression [3]: reduce
- ROS generation, pollutant-stimulated condition (ROS generation in HFDPC): decreased
- ROS generation, basal condition (ROS generation in HFDPC): decreased
- AhR activity [4]: attenuating
- GM-CSF production [4]: attenuating
- DHT/Testosterone ratio compared to control (5-alpha reductase; 50 μg/ml): 64%
- DHT/Testosterone ratio, dose dependence (5-alpha reductase; 1.25 to 50 μg/ml): decreases DHT/Testosterone ratio in a dose dependent manner
- Anagen (growing) hair [5]: increased
- Telogen (resting or shedding) hair [5]: reduced
- enhancement of ratio of Anagen to Telogen [5]: 6%

Structure (SMILES): CC(C)(C)NC(=O)[C@H]1CC[C@H]2[C@@H]3CC[C@H]4NC(=O)C=C[C@]4(C)[C@H]3CC[C@]12C [finasteride]
- DHT/testosterone ratio compared to the control condition (5-alpha reductase; finasteride reference): 1%
